Converted amounts (≈) assume the structure as drawn.
Experiments:
[1] = test system: Spiroplasma citri; test: in vitro test against Spiroplasma citri; format: cell-based; settings: levels as low as, read-out: level inhibiting S. citri
Description: Another important aspect of this invention is the activity of the A-40104 antibiotics against Spiroplasmas. Spiroplasma citri is the causative agent of citrus-stubborn disease; another Spiroplasma, corn-stunt Spiroplasma, affects the growth of corn. In in vitro tests against Spiroplasma citri A-40104 factor A and its dihydro derivative inhbit S. citri when applied at levels as low as 0.01 ppm.

[2] = test system: Pasteurella multocida (turkey); test: standard in vitro test against Pasteurella; format: cell-based
Description: Another veterinary aspect of this invention is the activity of the A-40104 antibiotics against Pasteurella species. P. multocida, for example, is a causative agent of respiratory infection in cattle, poultry, and swine. P. hemolytica is a major cause of respiratory disease in cattle. The activity of A-40104 factor A and its dihydro derivative against Pasteurella, as determined by standard in vitro tests, is summarized in Table X.

[3] = test system: Eubacterium aerofaciens; test: standard agar-dilution test, anaerobic bacteria; format: cell-based; settings: Collinsella aerofaciens, read after 24 hours
Description: Table VIII summarizes the activity of A-40104 factor A, as determined by the standard agar-dilution test.
*MIC determined by the agardilution method. Endpoints were read after 24

[4] = solubility
[5] = test system: powdery mildew; test: control of powdery mildew on bean plants; format: in vivo; settings: soil drench at 100 ppm
Description: (§1) The A-40104 antibiotics are also active against plant pathogens. […] The systemic activity of these antibiotics is especially advantageous in the control of plant pathogens or Spiroplasmas.

[6] = test system: powdery mildew; test: control of powdery mildew on barley plants; format: in vivo; settings: soil drench at 100 ppm
Description: as §1

[7] = test system: Mycoplasma synoviae; test: in vitro broth-dilution MIC, mycoplasma; format: cell-based
Description: (§2) The minimal inhibitory concentrations (MIC's) of A-40104 factor A; 19,20-dihydro-A-40104 factor A; and the tetraacetyl derivative of A-40104A against various mycoplasma species, as determined by in vitro broth-dilution studies, are summarized in Table IX.

[8] = test system: Mycoplasma gallisepticum; test: in vitro broth-dilution MIC, mycoplasma; format: cell-based
Description: as §2

[9] = test system: swine dysentery; settings: W. E. Brown et al. U.S. Pat. No. 4,041,175; cited from earlier work

MIC [1] | Structure (SMILES) | MIC [2] | MIC [3] | solubility in chloroform ([4]; chloroform) | solubility in alcohols ([4]; ethanol) | solubility in alcohols ([4]; methanol) | solubility in water ([4]; water) | control of powdery mildew [5] | control of powdery mildew [6] | MIC [7] | MIC [8] | effect in swine dysentery [9]
≤ 0.01 µg/mL | CCC1(C)CC(OC(=O)CO[C@@H]2OC[C@@H](O)[C@H](O)[C@H]2O)C2(C)C(C)CCC3(CCC(=O)C32)C(C)C1O (stereo partly shown) [19,20-dihydro-A-40104 factor A, 19,20-Dihydro-A-40104 Factor A] | 12.5 µg/mL (≈ 24.4 µM) | – | – | – | – | – | – | – | – | – | –
– | C=CC1(C)CC(OC(=O)CO[C@@H]2OC[C@@H](O)[C@H](O)[C@H]2O)C2(C)C(C)CCC3(CCC(=O)C32)C(C)C1O (stereo partly drawn) [A-40104 factor A, β,D-xylopyranosyl acetal derivative of pleuromutilin] | 12.5 µg/mL (≈ 24.5 µM) | 16 µg/mL (≈ 31.3 µM) | partially soluble | soluble | soluble | insoluble | control of powdery mildew is obtained | control of powdery mildew is obtained | < 0.78 µg/mL | < 0.78 µg/mL | –
– | C=C[C@]1(C)C[C@@H](OC(=O)CO)[C@]2(C)[C@H](C)CC[C@]3(CCC(=O)[C@H]32)[C@@H](C)[C@@H]1O [A-40104 factor C, pleuromutilin] | – | – | – | – | – | – | – | – | – | – | effective in the treatment of swine dysentery
